Results taken from patent US12410153B2, “Compounds, compositions and methods” (Avalo Therapeutics, Inc., priority 2014, dated 2025).

Assays:
[1] = Cardiovascular safety in anesthetized dogs, continuous IV infusion 90 min; format: in vivo, dog; conditions: dog, plasma, escalating IV infusion rates, read-out: plasma concentration at the end of infusion
Description: (§1) The potential effects of Form II of Compound (I) on the functions of the nervous system, cardiovascular system, and respiratory system were evaluated in a battery of safety pharmacology studies that included an in vitro human ether-a-go-go-related gene (hERG) assay and in vivo studies in rats, dogs, and monkeys. CNS effects were tested in rats at single doses at 15, 75, and 225 mg/kg.
(§2) Effects of Form II on the cardiovascular system were tested in several studies. Potential QTc effects were tested in vitro and in vivo.
(§3) Hemodynamic effects were tested in dogs and monkeys. […] However, Form II did produce dose-independent increases in systolic (12-15 mm Hg), diastolic (7-10 mm Hg), and mean arterial pressures (9-12 mm Hg) in conscious, chair-restrained monkeys given single oral doses at 15, 75, or 150 mg/kg and monitored for 6 h post-dose.

dogs = assay: as above; format: in vivo, dog; conditions: escalating IV infusion rates
Description: as §1, §2, §3

hERG current = hERG current (Homo sapiens, UniProt Q12809); assay: In vitro hERG assay; format: cell-based
Description: as §1, §2

monkeys = assay: Cardiovascular safety in conscious chair-restrained monkeys, single oral doses; format: in vivo, monkey
Description: as §1, §2, §3

[2] = as above; format: in vivo, monkey; conditions: monkey, plasma
Description: as §1, §2, §3

[3] = molecular target: T1, NMDA-GluN2B receptors, dog frontal cortex homogenate (Canis lupus familiaris, UniProt Q5R1P0+Q5R1P3); assay: Radioligand binding, dog frontal cortex homogenate; conditions: geometric mean
T1 construct: frontal cortex homogenate (dog and rhesus monkey); from tissue; host or cells: dog frontal cortex homogenate
Description: Radioligand binding assays were performed at room temperature (or 37° C.) in 96-well microtiter plates with a final assay volume of […] in 20 mM HEPES buffer (pH 7.4) containing 150 mM NaCl. […] Nonspecific binding was assessed using N-(3-chlorobenzyl)-4-iodobenzimidamide (final concentration, 10 μM), and total binding was measured by addition of DMSO (final concentration, 2%). L(tk−) cell membranes expressing human GluN1a/GluN2B receptors (final concentration, 40 pM) and [^3H]-[(E)-N1-(2-methoxybenzyl)-cinnamamidine] (final concentration, 1 nM) were added to all wells of the microtiter plate. After 3 h (24 h or 48 h) of incubation at room temperature (or 37° C.), samples were filtered through Packard GF/B filters (presoaked in 0.05% polyethylenimine [PEI; Sigma P-3143]) and washed 10 times with 1 mL of cold 20 mM HEPES buffer per wash. After vacuum drying of the filter plates, 50 μL of Packard Microscint-20 was added and the bound radioactivity determined in a Packard TopCount.
Analogous binding experiments, to those described above for the cloned human receptor expressed in L(tk−) cells, were also performed using whole brain homogenate (rat), frontal cortex homogenate (dog and rhesus monkey), and temporal cortex homogenate (human).

[4] = molecular target: GluN1a/GluN2B human receptors (Homo sapiens, UniProt Q05586+Q13224); assay: Calcium influx (FLIPR) in GluN1a/GluN2B L(tk−) cells
Sprague-Dawley rats [5] = assay: Rat forced swim test 24 hours after administration; format: in vivo; conditions: 10 mg/kg, p.o., 24 hours before test, p<0.05
Description: This study aimed to evaluate the duration of the antidepressant-like effects of Form II of Compound (I) using the forced swim test in male, Sprague-Dawley rats. Clinically effective antidepressant compounds reduce immobility time and increase swimming in rodents subjected to this test. Rats received Compound (I) (10 mg/kg, p.o.) or ketamine (10 mg/kg, i.p.) and 24 hours later were subjected to testing. […] The data represent mean±SEM.

in vivo = conditions: both, Sprague-Dawley, rat, po
rats = assay: Respiratory effects in male rats, single oral doses; format: in vivo, rat
Description: Respiratory effects were investigated in rats and dogs. […] Mean Form II plasma concentration was approximately 30 μM (10600 ng/mL) at the end of infusion and approximately 4 μM (1250 ng/mL) at 60 min post-infusion.

Sprague-Dawley rats [6] = assay: Locomotor assay; format: in vivo, rat
Description: To confirm that the effect of Form II in the forced swim test was not due to a general increase in activity levels, rats were subjected to a locomotor assay following oral Form II administration. Adult male Sprague-Dawley rats (N=42) were randomly assigned across the treatment groups (vehicle or Compound (I) at 0.1, 0.3, 1, 3, 10, and 30 mg/kg; N=6/group). Locomotor activity was assessed during the light cycle in photocell-monitored cages (Hamilton Kinder, San Diego, CA). Each cage consisted of a standard plastic rat cage (24×45.5 cm) surrounded by a stainless steel frame. Infrared photocell beams were located across the long axis of the frame to measure the ambulatory distance traveled. A second set of beams was placed above the floor and was used to measure rearing activity. Photocell beam interruptions were recorded by a computer system. Filter tops were placed on top of the test enclosures during testing. Rats were administered either vehicle or test compound via oral gavage twice on Day 1 (approximately 24 h before the test and prior to dark cycle) and once on Day 2 (45 min prior to placing in the locomotor cages for a 60-min test). Locomotor activity was captured in 5-min bins.

[7] = 15, 75, or 150 mg/kg oral, dose-independent

T1 sequence (Q5R1P3 27-1485, other chains not shown): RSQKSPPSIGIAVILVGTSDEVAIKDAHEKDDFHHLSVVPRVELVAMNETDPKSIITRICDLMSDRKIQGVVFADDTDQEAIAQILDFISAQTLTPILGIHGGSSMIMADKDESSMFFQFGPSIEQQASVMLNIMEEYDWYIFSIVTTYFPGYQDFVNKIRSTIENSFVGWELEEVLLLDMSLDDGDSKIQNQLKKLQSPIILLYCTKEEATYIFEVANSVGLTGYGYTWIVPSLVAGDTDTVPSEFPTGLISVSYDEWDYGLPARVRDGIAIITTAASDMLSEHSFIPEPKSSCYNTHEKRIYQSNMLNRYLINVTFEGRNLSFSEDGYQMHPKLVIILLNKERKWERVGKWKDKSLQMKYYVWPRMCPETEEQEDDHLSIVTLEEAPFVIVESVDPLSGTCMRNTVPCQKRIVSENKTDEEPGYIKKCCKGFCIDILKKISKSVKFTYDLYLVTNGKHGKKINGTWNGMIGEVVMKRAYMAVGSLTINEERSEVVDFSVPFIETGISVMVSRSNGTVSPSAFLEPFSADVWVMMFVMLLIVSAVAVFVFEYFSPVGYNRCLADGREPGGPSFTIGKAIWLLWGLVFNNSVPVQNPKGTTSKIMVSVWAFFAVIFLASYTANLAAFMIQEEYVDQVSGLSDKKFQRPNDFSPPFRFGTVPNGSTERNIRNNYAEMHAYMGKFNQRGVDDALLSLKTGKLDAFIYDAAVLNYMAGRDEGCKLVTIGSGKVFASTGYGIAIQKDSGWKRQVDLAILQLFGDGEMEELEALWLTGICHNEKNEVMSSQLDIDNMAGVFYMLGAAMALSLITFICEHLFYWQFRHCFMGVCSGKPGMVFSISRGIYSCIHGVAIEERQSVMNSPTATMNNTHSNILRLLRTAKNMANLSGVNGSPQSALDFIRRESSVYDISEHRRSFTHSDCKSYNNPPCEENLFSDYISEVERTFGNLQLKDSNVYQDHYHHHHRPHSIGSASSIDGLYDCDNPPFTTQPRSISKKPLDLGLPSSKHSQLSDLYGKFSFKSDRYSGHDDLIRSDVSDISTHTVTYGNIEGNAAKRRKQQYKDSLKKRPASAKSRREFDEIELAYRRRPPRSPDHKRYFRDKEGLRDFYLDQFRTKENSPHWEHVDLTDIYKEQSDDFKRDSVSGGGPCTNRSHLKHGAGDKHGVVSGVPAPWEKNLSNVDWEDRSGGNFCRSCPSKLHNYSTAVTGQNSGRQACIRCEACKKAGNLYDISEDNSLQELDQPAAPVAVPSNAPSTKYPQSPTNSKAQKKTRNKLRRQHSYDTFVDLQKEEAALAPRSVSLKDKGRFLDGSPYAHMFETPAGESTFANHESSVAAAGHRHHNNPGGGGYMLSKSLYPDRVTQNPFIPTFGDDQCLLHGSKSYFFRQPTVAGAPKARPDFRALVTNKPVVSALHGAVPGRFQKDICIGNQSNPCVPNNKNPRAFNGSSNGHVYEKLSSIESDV
Sequence of hERG current (Q12809 whole entry): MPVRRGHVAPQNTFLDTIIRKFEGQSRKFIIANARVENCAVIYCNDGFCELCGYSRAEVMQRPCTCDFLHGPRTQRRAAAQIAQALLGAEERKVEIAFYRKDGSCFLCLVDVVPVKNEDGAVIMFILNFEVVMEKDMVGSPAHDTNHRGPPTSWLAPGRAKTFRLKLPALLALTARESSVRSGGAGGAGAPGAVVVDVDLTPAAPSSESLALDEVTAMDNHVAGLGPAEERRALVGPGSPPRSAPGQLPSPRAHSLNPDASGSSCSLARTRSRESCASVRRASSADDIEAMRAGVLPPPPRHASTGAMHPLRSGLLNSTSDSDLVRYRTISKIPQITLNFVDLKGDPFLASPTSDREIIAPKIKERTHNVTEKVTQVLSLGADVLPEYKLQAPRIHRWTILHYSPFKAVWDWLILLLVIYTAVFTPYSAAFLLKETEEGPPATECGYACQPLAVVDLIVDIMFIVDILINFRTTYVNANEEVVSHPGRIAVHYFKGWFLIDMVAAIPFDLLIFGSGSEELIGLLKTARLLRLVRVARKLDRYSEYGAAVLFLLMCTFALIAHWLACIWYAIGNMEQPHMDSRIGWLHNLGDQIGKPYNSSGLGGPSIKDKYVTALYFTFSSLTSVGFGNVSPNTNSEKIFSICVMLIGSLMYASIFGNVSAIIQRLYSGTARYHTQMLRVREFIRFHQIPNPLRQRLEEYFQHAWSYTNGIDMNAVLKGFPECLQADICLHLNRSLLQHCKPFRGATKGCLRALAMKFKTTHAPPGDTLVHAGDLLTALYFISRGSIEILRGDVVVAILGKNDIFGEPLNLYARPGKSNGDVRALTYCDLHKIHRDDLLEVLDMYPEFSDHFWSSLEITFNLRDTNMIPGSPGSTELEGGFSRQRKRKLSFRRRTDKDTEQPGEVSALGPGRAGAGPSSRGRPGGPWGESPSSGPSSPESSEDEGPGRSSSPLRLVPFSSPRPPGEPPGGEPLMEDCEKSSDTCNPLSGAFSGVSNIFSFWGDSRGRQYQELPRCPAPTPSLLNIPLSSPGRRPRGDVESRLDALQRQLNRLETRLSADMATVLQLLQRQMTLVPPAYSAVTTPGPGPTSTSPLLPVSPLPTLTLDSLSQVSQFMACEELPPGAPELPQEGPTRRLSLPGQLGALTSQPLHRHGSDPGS
Sequence of GluN1a/GluN2B human receptors (Q13224 27-1484, other chains not shown): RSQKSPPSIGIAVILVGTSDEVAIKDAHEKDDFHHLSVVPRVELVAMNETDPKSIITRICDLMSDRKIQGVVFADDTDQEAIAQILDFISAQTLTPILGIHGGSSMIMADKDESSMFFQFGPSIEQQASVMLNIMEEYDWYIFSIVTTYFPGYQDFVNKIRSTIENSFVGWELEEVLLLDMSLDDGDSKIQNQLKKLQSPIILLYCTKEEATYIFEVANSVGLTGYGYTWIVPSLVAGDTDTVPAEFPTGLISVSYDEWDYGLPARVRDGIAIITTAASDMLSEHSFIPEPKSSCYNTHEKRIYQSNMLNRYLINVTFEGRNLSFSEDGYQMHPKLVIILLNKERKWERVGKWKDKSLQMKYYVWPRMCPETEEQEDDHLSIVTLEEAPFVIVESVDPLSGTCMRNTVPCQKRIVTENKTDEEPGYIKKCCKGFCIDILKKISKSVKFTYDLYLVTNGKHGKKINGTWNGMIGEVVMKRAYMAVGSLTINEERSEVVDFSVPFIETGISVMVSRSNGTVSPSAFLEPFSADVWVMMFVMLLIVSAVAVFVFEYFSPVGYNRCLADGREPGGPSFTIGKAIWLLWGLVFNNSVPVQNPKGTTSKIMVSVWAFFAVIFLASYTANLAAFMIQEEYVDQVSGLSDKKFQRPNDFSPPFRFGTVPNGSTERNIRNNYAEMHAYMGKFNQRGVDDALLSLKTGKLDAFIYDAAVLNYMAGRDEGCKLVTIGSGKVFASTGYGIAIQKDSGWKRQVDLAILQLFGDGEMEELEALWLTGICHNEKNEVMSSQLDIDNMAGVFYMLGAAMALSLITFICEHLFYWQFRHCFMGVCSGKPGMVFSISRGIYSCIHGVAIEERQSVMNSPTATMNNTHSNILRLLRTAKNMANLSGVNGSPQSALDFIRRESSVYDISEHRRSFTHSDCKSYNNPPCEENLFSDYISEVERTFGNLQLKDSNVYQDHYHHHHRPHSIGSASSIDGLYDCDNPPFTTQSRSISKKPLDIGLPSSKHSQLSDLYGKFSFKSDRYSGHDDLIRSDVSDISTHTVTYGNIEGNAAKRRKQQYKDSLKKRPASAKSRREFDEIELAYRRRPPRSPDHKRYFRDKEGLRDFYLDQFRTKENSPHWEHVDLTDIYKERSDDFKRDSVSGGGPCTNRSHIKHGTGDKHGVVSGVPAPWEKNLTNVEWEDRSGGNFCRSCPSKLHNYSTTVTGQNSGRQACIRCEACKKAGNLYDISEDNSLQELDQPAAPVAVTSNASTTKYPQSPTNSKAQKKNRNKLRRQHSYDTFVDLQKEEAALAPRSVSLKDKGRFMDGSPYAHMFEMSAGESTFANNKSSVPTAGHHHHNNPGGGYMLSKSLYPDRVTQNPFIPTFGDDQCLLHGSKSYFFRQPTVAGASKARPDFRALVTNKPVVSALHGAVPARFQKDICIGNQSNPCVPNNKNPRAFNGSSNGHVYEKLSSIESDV

SMILES: Cc1ccc(COC(=O)N2CC[C@H](CNc3ncccn3)[C@H](F)C2)cc1 [Form II, 4-methylbenzyl (3S, 4R)-3-fluoro-4-[(pyrimidin-2-ylamino)methyl] piperidine-1-carboxylate]
- concentration at 90 min [1]: ~74 µM
- heart rate, arterial blood pressure, femoral blood flow (dogs): did not affect
- heart rhythm and ECG parameters incl. QTc interval (dogs): did not affect
- IC50 (hERG current): ~13 µM
- heart rhythm and ECG parameters (monkeys; 15, 75, and 150 mg/kg oral, monitored 6 h): did not affect
- increase in diastolic pressure (monkeys; [7]): 7-10 mm Hg
- increase in mean arterial pressure (monkeys; [7]): 9-12 mm Hg
- increase in systolic pressure (monkeys; [7]): 12-15 mm Hg
- Cmax ([2]; 15 mg/kg oral): ~3 µM
- Cmax ([2]; 75 mg/kg oral): ~9 µM
- Cmax ([2]; 150 mg/kg oral): ~15 µM
- Ki ([3]; 37° C.): 13 nM
- Ki ([3]; room temp.): 3.2 nM
- IC50 [4]: 3.6 nM
- immobility (Sprague-Dawley rats [5]): reduced immobility
- swim time (Sprague-Dawley rats [5]): increased swim time significantly
- Cmax (in vivo; 10 mg/kg): ~4 µM
- Cmax (in vivo; 30 mg/kg): ~14 µM
- Cmax (in vivo; 100 mg/kg): ~26 µM
- respiratory function (respiratory rate, tidal volume, minute ventilation, PenH) (rats; 15, 75, and 225 mg/kg oral): respiratory stimulation
- respiratory function at end of 6-h monitoring period (rats; ≥75 mg/kg oral): remained altered
- locomotor effects (Sprague-Dawley rats [6]; 0.1 and 0.3 mg/kg dose groups): No locomotor effects
- ED50 (Sprague-Dawley rats [6]; Rattus norvegicus, read-out: ED50 for increase in locomotor activity): ~2 mg/kg
- distance traveled (Sprague-Dawley rats [6]; first 5 min of testing, 1, 3, 10, and 30 mg/kg vs vehicle): significantly increased
- RO corresponding to locomotor ED50 (Sprague-Dawley rats [6]; rat, in vivo): ~75%
- total distance traveled (Sprague-Dawley rats [6]; summed over 60-min test, 1, 3, 10, and 30 mg/kg vs vehicle): significantly increased
